Data as given in patent US4178456A, “Prostenoic acids and esters” (American Cyanamid Company, priority 1977, dated 1979).

Legend:
[1] = test system: collagen induced platelet aggregation; experiment: Inhibition of Platelet Aggregation-In Vitro, collagen induced; type: cell-based, human; set-up: key: (-): Inhibition; (+): No Inhibition
From the text: (§1) It is well known that platelet aggregation inhibitors may be useful as anti-thrombotic drugs. Inhibition of platelet aggregation can be conveniently measured in vitro by monitoring changes in optical density and/or light transmission in platelet rich plasma upon addition of suitable aggregating agents such as adenosine diphosphate, epinephrine, thrombin or collagen. Alternatively, platelet aggregation can be measured in vitro using platelet rich plasma obtained at various time intervales from animals given inhibitors by an oral or parenteral route.
(§2) Human […] is incubated with modified Tyrode's solution in a proportion of 40-50% human […]. The test compounds are added at varying concentrations and after 5 minutes incubation, an aggregating agent such as adenosine diphosphate or collagen is added. The change in optical density (light transmission) is monitored by eye and inhibition is recorded as a (-) or lack of inhibition is recorded as a (+). Test compounds are considered active if they inhibit adenosine diphosphate or collagen induced aggregation at a concentration of 25 mcg/ml or less within 5-10 minutes.

[2] = test system: adenosine diphosphate induced platelet aggregation; experiment: Inhibition of Platelet Aggregation-In Vitro, adenosine diphosphate induced; type: cell-based, human; set-up: key: (-): Inhibition; (+): No Inhibition
From the text: as §1, §2

[3] = test system: bronchospasms elicited by 5-hydroxytryptamine; experiment: Bronchodilator Activity (Konzett procedure), 5-hydroxytryptamine; type: in vivo, guinea pigs; settings: Cavia porcellus; three logarithmic cumulative intravenous doses
Protocol: (§3) Bronchodilator activity is determined in guinea pigs against bronchospasms elicited by intravenous injections of 5-hydroxytryptamine, histamine or acetylcholine by the Konzett procedure. [See J. Lulling, P. Lievens, F. El Sayed and J. Prignot, Arzeneimittel-Forschung, 18, 995 (1968).] In Table D, bronchodilator activity for representative compounds of this invention against one or more of the three spasmogenic agents is expressed as an ED50 determined from the results obtained with three logarithmic cumulative intravenous doses.

[4] = test system: mean arterial blood pressure; experiment: Hypotensive Activity in anesthetized rats; type: in vivo, Male Wistar strain rats; settings: dose 2.1 mg/kg, intravenous (jugular) infusion over one minute, 4 animals, urethane anesthesia
Protocol: This procedure is a modification of the technique described by Pike, et al., Prostaglandins, Nobel Symposium 2, Stockholm, June, 1966, pg. 165.
Male Wistar strain rats (Royal Hart Farms) averaging approximately 250 g in weight are fastened to rat boards in a supine position by means of canvas vests and limb ties. The animals are anesthetized with a 900 mg/kg intraperitoneal dose of urethane. The left carotid artery is cannulated with polyethylene 50 tubing to measure arterial blood pressure and the left external jugular vein is cannulated with polyethylene 50 tubing for drug infusion. The animals are allowed to equilibrate for 15-30 minutes. The test compound is infused in 0.5 ml of saline, over a one minute period, at the indicated dose level, using a Harvard model 940 infusion pump and a 6 cc syringe at speed 5. Each drug dose is flushed with 0.4 ml of saline. The mean arterial blood pressure is measured before and after drug administration using a Statham model P23Db pressure transducer and a Brush model 260 recorder. The percent depression in mean arterial blood pressure and the duration of at least a 10% depression induced by representative compounds of this invention are recorded in Table C.

[5] = test system: bronchospasms elicited by acetylcholine; experiment: Bronchodilator Activity (Konzett procedure), acetylcholine; type: in vivo, guinea pigs; settings: Cavia porcellus; three logarithmic cumulative intravenous doses
Protocol: as §3

[6] = test system: bronchospasms elicited by histamine; experiment: Bronchodilator Activity (Konzett procedure), histamine; type: in vivo, guinea pigs; settings: Cavia porcellus; three logarithmic cumulative intravenous doses
Protocol: as §3

SMILES	Inhibition of Platelet Aggregation, Collagen ([1]; drug concentration 0.25 ug/ml)	Inhibition of Platelet Aggregation, Collagen ([1]; drug concentration 2.5 ug/ml)	Inhibition of Platelet Aggregation, Collagen ([1]; drug concentration 25 ug/ml)	Inhibition of Platelet Aggregation, Collagen ([1]; drug concentration 250 ug/ml)	Inhibition of Platelet Aggregation, Adenosine Diphosphate ([2]; drug concentration 0.25 ug/ml)	Inhibition of Platelet Aggregation, Adenosine Diphosphate ([2]; drug concentration 2.5 ug/ml)	Inhibition of Platelet Aggregation, Adenosine Diphosphate ([2]; drug concentration 25 ug/ml)	Inhibition of Platelet Aggregation, Adenosine Diphosphate ([2]; drug concentration 250 ug/ml)	ED50 [3]	Duration in Minutes of at Least 10% Depression [4]	Percent Depression of Mean Arterial Blood Pressure [4]	ED50 [5]	ED50 [6]
O=C(O)CCC/C=C\C[C@@H]1[C@@H](/C=C/C2(O)CCCCC2)[C@H](O)C[C@@H]1O (relative stereo) [nat(and ent)-9α,11α,15-Trihydroxy-15,16-tetramethylene-17,18,19,20-tetranor-13-trans-5-cis-prostadienoic Acid]	(+)	(+)	(-)	(-)	(+)	(+)	(+)	(-)					
O=C(O)CCCC=CCC1C(O)CC(=O)C1C=CC1(O)CCCCC1 (stereo not drawn) [nat(and ent)-9α,15-Dihydroxy-11-oxo-15,16-tetramethylene-17,18,19,20-tetranor-5-cis-13-trans-prostadienoic Acid]	(+)	(-)	(-)	(-)			(-)	(-)	0.253 µg/kg	> 20 min	-29%	> 3.2 µg/kg	> 3.2 µg/kg
